From patent US9259452B2, “Deacetylase inhibitor therapy” (Celgene Corporation, priority 2006, dated 2016)
Where “and” joins values, the source holds several entries; their conditions need not be identical. Identical values can stand only once.

How the values were obtained:
Format in all cases: in vivo, human
[1] = ECG evaluation of T-wave (grade 1) and ST segment (grade 2) abnormalities, phase II trial of romidepsin in T-cell lymphoma patients; conditions: for ECGs Grade 0 (no T-wave/ST segment abnormality) / ECGs Grade 1 (T-wave abnormality) / ECGs Grade 2 (ST segment depression): all doses, n = 42 patients
Description: (§1) The protocol (NCI 01-C-0049 or 1312) and informed consent were approved by the Institutional Review Board of the National Cancer Institute. All data used in this analysis were obtained from patients who signed an informed consent and were enrolled and treated at the NIH Warren Grant Magnuson Clinical Center. Toxicities were reported using the National Cancer Institute Common Toxicity Criteria, CTC version 2.0. The Inclusion Criteria required measurable disease, an age of 18 years or older, an ECOG performance status of 0, 1 or 2, and a life expectancy of >12 wk. Required laboratory values included AGC≧1000/μL, platelets≧100,000/μL, bilirubin <1.5× the institutional upper limit of normal (ULN), AST <3×ULN, and creatinine <1.5×ULN. Patients with a myocardial infarction within the previous 6 months, a left ventricular ejection fraction (LVEF) below normal (<45% if performed by MUGA, or <50% if performed by echocardiogram or cardiac MRI), a corrected QT interval of >500 ms, unstable angina, or third degree heart block (unless with pacemaker) were not eligible to enroll.
(§2) Subsequently, the protocol was amended and all patients were treated on days 1, 8 and 15 of a 28 day cycle, with a starting dose of 14 mg/m^2. This change was made for improved patient tolerability. […] Provisions for dose reduction were made in the case of grade 3 or 4 toxicity. Alternatively, a dose increase was allowed for patients who had no serious toxicities.

[2] = Left ventricular ejection fraction (LVEF) evaluation by MUGA, echocardiogram or cardiac MRI
Description: Evaluation of left ventricular ejection fraction: LVEF evaluations were performed at baseline, after the second cycle and every 3 cycles thereafter using MUGA, echocardiogram or cardiac MRI (23, 24). A patient's on-study and last available LVEF are included in this analysis. Cardiac measurements were performed according to the American Society of Echocardiography guidelines (25). LVEFs from echocardiograms were evaluated by an independent reviewer in a blinded manner and were assessed using the biplane Simpson's method.

[3] = Post-treatment echocardiogram, global LV function
Description: Post treatment evaluation of cardiac function (LVEF): Echocardiograms to evaluate cardiac function were also performed on the day following the last dose of the cycle; day 6 for patients treated on days 1 and 5, or day 16 for patients treated on days 1, 8 and 15.
Post-treatment global LV function: To determine whether the observed ECG abnormalities were associated with acute LV wall motion abnormalities, echocardiograms were performed on the day following the last dose of the cycle (d 6 for patients treated on days 1 and 5, and day 16 for patients treated on days 1, 8, and 15).

[4] = Rhythm evaluation by Holter and telemetry monitoring
Description: Rhythm: A 24-hour Holter monitor was obtained prior to initiating therapy to establish a baseline rhythm. Patients were monitored by telemetry following administration of the first dose until discharge on day 3.

[5] = Toxicities and cardiac events observed on the phase II trial
Description: as §1, §2

[6] = Pre-treatment cycle 2 day 1 (n = 34), worst grade cycle 1: 1
[7] = Pre-treatment cycle 2 day 1 (n = 34), worst grade cycle 1: 2
[8] = Pre-treatment cycle 3 day 1 (n = 28), worst grade cycle 2: 1
[9] = Pre-treatment cycle 3 day 1 (n = 28), worst grade cycle 2: 2
[10] = Pre-treatment day 8 (n = 37), worst grade post-day 1 treatment 0
[11] = Pre-treatment day 8 (n = 37), worst grade post-day 1 treatment 1
[12] = Pre-treatment day 8 (n = 37), worst grade post-day 1 treatment 2
[13] = Pre-treatment day 15 (n = 36), worst grade post-day 8 treatment 0
[14] = Pre-treatment day 15 (n = 36), worst grade post-day 8 treatment 1
[15] = Pre-treatment day 15 (n = 36), worst grade post-day 8 treatment 2
[16] = Day after treatment, listed as depsipeptide
[17] = Immediate post infusion, listed as depsipeptide
[18] = Pre-treatment ECGs, listed as depsipeptide
[19] = any time during treatment, 37 patients on day 1, 8, 15 schedule
[20] = first dose of the first cycle (n = 42), Day 2
[21] = first dose of the first cycle (n = 42), Day 3
[22] = first dose of the first cycle (n = 42), Post infusion
[23] = first dose of the first cycle (n = 42), Pre (baseline)
[24] = 16 patients receiving at least 6 cycles
[25] = 16 patients receiving at least 6 cycles, baseline
[26] = among 123 ECGs, day 6 or day 16

C/C=C1\NC(=O)[C@H]2CSSCC/C=C/[C@H](CC(=O)N[C@H](C(C)C)C(=O)N2)OC(=O)[C@H](C(C)C)NC1=O [romidepsin, (1S,4S,10S,16E,21R)-7-[(2Z)-ethylidene]-4,21-diisopropyl-2-oxa-12,13-dithia-5,8,20,23-tetraazabicyclo[8.7.6]tricos-16-ene-3,6,9,19,22-pentanone]
Patients with worst ECG Grade 0 ([1]; All cycles, 42 patients): 2% | Patients with worst ECG Grade 1 ([1]; All cycles, 42 patients): 45% | Patients with worst ECG Grade 2 ([1]; All cycles, 42 patients): 52% | Patients with worst ECG Grade 0 ([1]; Cycle 1 only, 42 patients): 19% | Patients with worst ECG Grade 1 ([1]; Cycle 1 only, 42 patients): 57% | Patients with worst ECG Grade 2 ([1]; Cycle 1 only, 42 patients): 24% | Patients with ECG grade 0 at presentation for next cycle ([1]; Pre-treatment cycle 2 day 1 (n = 34), worst grade cycle 1: 0): 6 | Patients with ECG grade 0 at presentation for next cycle [1, 6]: 18 | Patients with ECG grade 1 at presentation for next cycle [1, 6]: 3 | Patients with ECG grade 0 at presentation for next cycle [1, 7]: 4 | Patients with ECG grade 1 at presentation for next cycle [1, 7]: 2 | Patients with ECG grade 2 at presentation for next cycle [1, 7]: 1 | Patients with ECG grade 0 at presentation for next cycle ([1]; Pre-treatment cycle 3 day 1 (n = 28), worst grade cycle 2: 0): 2 | Patients with ECG grade 0 at presentation for next cycle [1, 8]: 16 | Patients with ECG grade 1 at presentation for next cycle [1, 8]: 1 | Patients with ECG grade 0 at presentation for next cycle [1, 9]: 7 | Patients with ECG grade 1 at presentation for next cycle [1, 9]: 2 | Patients with ECG grade 0 at presentation for next cycle ([1]; Pre-treatment cycle 4 day 1 (n = 20), worst grade cycle 3: 1): 14 | Patients with ECG grade 0 at presentation for next cycle ([1]; Pre-treatment cycle 4 day 1 (n = 20), worst grade cycle 3: 2): 6 | Patients with ECG grade 0 at presentation for next dose [1, 10]: 14 | Patients with ECG grade 1 at presentation for next dose [1, 10]: two | Patients with ECG grade 1 at presentation for next dose ([1]; Pre-treatment day 8 (n = 37), worst grade post-day 1 treatment 0, listed as depsipeptide): 2 | Patients with ECG grade 0 at presentation for next dose [1, 11]: nine | Patients with ECG grade 1 at presentation for next dose [1, 11]: 8 | Patients with ECG grade 2 at presentation for next dose [1, 11]: 1 | Patients with ECG grade 0 at presentation for next dose ([1]; Pre-treatment day 8 (n = 37), worst grade post-day 1 treatment 1, listed as depsipeptide): 9 | Patients with ECG grade 0 at presentation for next dose [1, 12]: two | Patients with ECG grade 1 at presentation for next dose [1, 12]: 1 | Patients with ECG grade 0 at presentation for next dose ([1]; Pre-treatment day 8 (n = 37), worst grade post-day 1 treatment 2, listed as depsipeptide): 2 | Patients with ECG grade 0 at presentation for next dose [1, 13]: 6 | Patients with ECG grade 1 at presentation for next dose [1, 13]: 3 | Patients with ECG grade 0 at presentation for next dose [1, 14]: 13 | Patients with ECG grade 1 at presentation for next dose [1, 14]: 10 | Patients with ECG grade 0 at presentation for next dose [1, 15]: 2 | Patients with ECG grade 1 at presentation for next dose [1, 15]: 1 | Patients with ECG grade 2 at presentation for next dose [1, 15]: 1 | ECGs Grade 0 (no T-wave/ST segment abnormality) ([1]; Day after treatment): 20% | ECGs Grade 1 (T-wave abnormality) ([1]; Day after treatment): 69% | ECGs Grade 2 (ST segment depression) ([1]; Day after treatment): 11% | ECGs Grade 1 (T-wave abnormality) [1, 16]: 69% | ECGs Grade 2 (ST segment depression) [1, 16]: 11% | ECGs Grade 0 (no T-wave/ST segment abnormality) ([1]; Immediate post infusion): 49% | ECGs Grade 1 (T-wave abnormality) ([1]; Immediate post infusion): 48% | ECGs Grade 2 (ST segment depression) ([1]; Immediate post infusion): 3% | ECGs Grade 1 (T-wave abnormality) [1, 17]: 48% | ECGs Grade 2 (ST segment depression) [1, 17]: 3% | ECGs Grade 0 (no T-wave/ST segment abnormality) ([1]; Pre-treatment ECGs): 76% | ECGs Grade 1 (T-wave abnormality) ([1]; Pre-treatment ECGs): 22% | ECGs Grade 2 (ST segment depression) ([1]; Pre-treatment ECGs): 2% | ECGs Grade 1 (T-wave abnormality) [1, 18]: 22% | ECGs Grade 2 (ST segment depression) [1, 18]: 2% | Patients with worst ECG Grade 1 [1, 19]: 43% | Patients with worst ECG Grade 2 [1, 19]: 54% | ECGs Grade 0 [1, 20]: 49% | ECGs Grade 1 [1, 20]: 44% | ECGs Grade 2 [1, 20]: 7% | ECGs Grade 0 [1, 21]: 55% | ECGs Grade 1 [1, 21]: 45% | ECGs Grade 0 [1, 22]: 82% | ECGs Grade 1 [1, 22]: 18% | ECGs Grade 0 [1, 23]: 95% | ECGs Grade 1 [1, 23]: 5% | ST segment depression, grade 2 ([1]; first dose of the first cycle, day 3): not observed | Grade 2 ECGs meeting criteria consistent with ischemia (1 mm ST segment depression 80 msec after end of QRS) ([1]; of 69 ECGs scored grade 2, cardiologist review): 45% | Patients returning for the second cycle with no evidence of T-wave or ST-segment abnormalities ([1]; of the 34 patients returning for cycle 2): Twenty-eight | Pre-treatment versus post-treatment LVEF ([2]; 8 patients with six or more cycles and prior doxorubicin): did not demonstrate a difference in pre-treatment and post-treatment LVEF | Latest EF, Median [2, 24]: 63.5% | Latest EF, Range [2, 24]: 50-80% | Starting EF, Median [2, 25]: 65.5% | Starting EF, Range [2, 25]: 50-85% | LVEF evaluations versus baseline ([2]; 16 patients who received six or more cycles, median cumulative dose 390 mg/m^2): did not demonstrate a change from baseline | EF by MUGA, On-study Median (range) ([2]; All patients (19), baseline): 61% (46-85) | EF by Echocardiogram, On-study Median (range) ([2]; All patients (23), baseline): 67% (53-85) | Median actual change in LVEF, on-study to last scan ([2]; MUGA scans, 13 patients, median 20.3 weeks): 1% | EF by MUGA, Last evaluation Median (range) ([2]; Patients treated with >6 cycles (7)): 61% (50-68) | EF by MUGA, On-study Median (range) ([2]; Patients treated with >6 cycles (7), baseline): 64% (50-77) | EF by Echocardiogram, Last evaluation Median (range) ([2]; Patients treated with >6 cycles (9)): 68% (58-80) | EF by Echocardiogram, On-study Median (range) ([2]; Patients treated with >6 cycles (9), baseline): 69% (56-85) | EF by MUGA, Last evaluation Median (range) ([2]; Patients with pre- and post treatment evaluations (13)): 61% (50-91) | EF by MUGA, On-study Median (range) ([2]; Patients with pre- and post treatment evaluations (13), baseline): 62% (46-85) | EF by Echocardiogram, Last evaluation Median (range) ([2]; Patients with pre- and post treatment evaluations (22)): 64% (53-87) | EF by Echocardiogram, On-study Median (range) ([2]; Patients with pre- and post treatment evaluations (22), baseline): 67% (53-85) | Median actual change in LVEF, on-study to last scan ([2]; echocardiograms, 22 patients, median 18.4 weeks): −1% | Latest EF ([2]; individual patients receiving at least 6 cycles of therapy): 50% and 78% and 61% (3×) and 72% and 68% (3×) and 80% and 58% (2×) and 70% and 63% and 64% and 60% | Starting EF ([2]; individual patients receiving at least 6 cycles of therapy, baseline): 52% and 69% and 56% and 67% and 70% (2×) and 85% (2×) and 68% and 58% and 59% and 64% (2×) and 50% and 77% and 54% | ECGs with ST-segment depression obtained on the same day as the echocardiogram [3, 26]: 23 | ECGs with T-wave flattening obtained on the same day as the echocardiogram [3, 26]: 82 | ECGs with no abnormalities obtained on the same day as the echocardiogram [3, 26]: 18 | Echocardiograms demonstrating a change from baseline (acute LV wall motion) ([3]; day following last dose of the cycle (day 6 or day 16), 145 echocardiograms, 34 patients): None | VT on 24-hour Holter during administration ([4]; 20 administrations to 9 patients, including 2 with VT pre-treatment): No patient had VT | Patients noted to have SVT on 24-hour Holter during administration ([4]; 20 administrations to 9 patients, episodes similar to pretreatment Holter): Two | Additional patients observed to have wide complex tachycardia on telemetry ([4]; telemetry 24-36 hours, 36 patients, max one event per 24 hr, 4 to 12 beats): Four | Additional patients observed to have rare SVT on telemetry ([4]; telemetry 24-36 hours, 36 patients, similar frequency on pre-treatment Holter): Three | Observed toxicities ([5]; 42 patients, phase II trial): primarily nausea and fatigue | Pre-treatment and post-treatment EP studies ([5]; one patient with significant ectopy prior to initiation of protocol): no change in intracardiac conduction or inducibility of any arrhythmias | Cardiac event in a patient with QTc greater than 500 ([5]; telemetry, abnormal magnesium and potassium levels): 12 beat run of VT that was asymptomatic and did not recur
